Test results published in PMC7835349 (Communications Biology, 2021).
Where “and” joins values, the source holds several entries; their conditions need not be identical. Equal values may be shown once.

Tests used:
RS4;11 xenograft = experiment: RS4;11 mouse xenograft efficacy (tumour volume); type: in vivo, C.B-17 SCID mouse; parameters: key to tumour volume, individual animals: tumour volume in mm³, length × width²/0.52; details: for tumour volume, individual animals: 20 mg/kg AZD4320
Method: Female C.B.−17 SCID mice were purchased from Charles River Laboratories. Mice were 5–8 weeks old at the time of tumour implantation. All xenograft studies were conducted at our Association for the Assessment and Accreditation of Laboratory Animal Care accredited facility in Waltham, MA in accordance with ethical regulations described in the guidelines established by the internal Institutional Animal Care and Use Committee. The dendrimer conjugates were formulated in citrate/phosphate buffer pH 5.0, diluted 1:10 with 5% glucose containing 1% w/v Kolliphor HS15, and AZD4320 was formulated in 30% HP-β-CD and dosed as a weekly intravenous (IV) administration at a volume of 5 ml/kg at the indicated doses. Five million RS4;11, five million SUDHL-4 or five million OCI-LY-10 cells were injected subcutaneously in the right flank of mice in a volume of 0.1 ml. Tumour volumes (measured by caliper), animal body weight, and tumor condition were recorded twice weekly for the duration of the study. The tumour volume was calculated (taking length to be the longest diameter across the tumour and width to be the corresponding perpendicular diameter) using the formula: length (mm) x width (mm)^2/0.52. For efficacy studies, mice were randomized based on tumour volumes using stratified sampling and enrolled into control and treatment groups. Tumour growth inhibition from the start of treatment was quantified by measuring the difference in tumour volume between control and treated groups. Survival analysis was evaluated using Mantel-Cox test. Tumours were also taken for bioanalysis.

telemetered dogs = experiment: Conscious dog telemetry (QRS amplitude and other cardiovascular parameters, tolerability)
[1] = dog, AZD0466 10 mg/kg (3 mg/kg AZD4320 equivalent), 1 h infusion
[2] = dog, AZD0466 30 mg/kg (9 mg/kg AZD4320 equivalent), 1 h infusion
[3] = dog, AZD0466 60 mg/kg (18 mg/kg AZD4320 equivalent), 1 h infusion

AZD4320-MIDA-PEG2100 [AZD0466]
tumour volume, individual animals (RS4;11 xenograft; Day 38, listed as SPL-8977, 20 mg/kg, in mm³ (unit assumed)): 600 and 609 and 679 and 641 | tumour volume, individual animals (RS4;11 xenograft; Day 41, listed as SPL-8977, 20 mg/kg, in mm³ (unit assumed)): 419 and 480 and 364 and 544 | tumour volume, individual animals (RS4;11 xenograft; Day 45, listed as SPL-8977, 20 mg/kg): 0 (2×) and 133 and 130 | tumour volume, individual animals (RS4;11 xenograft; Day 48, listed as SPL-8977, 20 mg/kg): 0 (3×) and 75 | tumour volume, individual animals (RS4;11 xenograft; Day 52, listed as SPL-8977, 20 mg/kg): 0 (3×) and 134 | tumour volume, individual animals (RS4;11 xenograft; Day 55, in mm³ (unit assumed)): 0 | tumour volume, individual animals (RS4;11 xenograft; Day 59, listed as SPL-8977, 20 mg/kg): 0 (2×) and 122 and 66 | tumour volume, individual animals (RS4;11 xenograft; Day 63, listed as SPL-8977, 20 mg/kg, in mm³ (unit assumed)): 275 and 244 and 0 and 343 | tumour volume, individual animals (RS4;11 xenograft; Day 66, listed as SPL-8977, 20 mg/kg, in mm³ (unit assumed)): 255 and 188 and 196 and 333 | tumour volume, individual animals (RS4;11 xenograft; Day 69, listed as SPL-8977, 20 mg/kg, in mm³ (unit assumed)): 384 and 259 and 193 and 637 | tumour volume, individual animals (RS4;11 xenograft; Day 73, listed as SPL-8977, 20 mg/kg, in mm³ (unit assumed)): 574 and 450 and 240 and 837 | AZD4320-equivalent dose of dendrimer conjugate needed to match efficacy of AZD4320 (RS4;11 xenograft; RS4;11): approximately twice the dose | magnitude of in vivo efficacy (RS4;11 xenograft; RS4;11, 20 mg/kg AZD4320 equivalent dose vs SPL-8932 20 mg/kg equivalent and AZD4320 10 mg/kg): comparable to that of SPL-8932 and AZD4320 | Tumour volume, Geo Mean (RS4;11 xenograft; RS4;11, AZD0466 10 mg/kg (3mg/kg AZD4320), day 41): 492.913 | Tumour volume, Geo Mean (RS4;11 xenograft; RS4;11, AZD0466 10 mg/kg (3mg/kg AZD4320), day 44): 317.328 | Tumour volume, Geo Mean (RS4;11 xenograft; RS4;11, AZD0466 10 mg/kg (3mg/kg AZD4320), day 48): 5.078 | Tumour volume, Geo Mean (RS4;11 xenograft; RS4;11, AZD0466 10 mg/kg (3mg/kg AZD4320), day 51): 2.414 | Tumour volume, Geo Mean (RS4;11 xenograft; RS4;11, AZD0466 10 mg/kg (3mg/kg AZD4320), day 55): 1 | Tumour volume, Geo Mean (RS4;11 xenograft; RS4;11, AZD0466 10 mg/kg (3mg/kg AZD4320), day 58): 49.5834 | Tumour volume, Geo Mean (RS4;11 xenograft; RS4;11, AZD0466 10 mg/kg (3mg/kg AZD4320), day 63): 177.592 | Tumour volume, Geo Mean (RS4;11 xenograft; RS4;11, AZD0466 10 mg/kg (3mg/kg AZD4320), day 66): 258.58 | Tumour volume, Geo Mean (RS4;11 xenograft; RS4;11, AZD0466 10 mg/kg (3mg/kg AZD4320), day 70): 353.377 | Tumour volume, Geo Mean (RS4;11 xenograft; RS4;11, AZD0466 10 mg/kg (3mg/kg AZD4320), day 73): 450.085 | Tumour volume, Geo Mean (RS4;11 xenograft; RS4;11, AZD0466 10 mg/kg (3mg/kg AZD4320), day 77): 770.449 | Tumour volume, Geo Mean (RS4;11 xenograft; RS4;11, AZD0466 10 mg/kg (3mg/kg AZD4320), day 80): 703.796 | Tumour volume, Geo Mean (RS4;11 xenograft; RS4;11, AZD0466 10 mg/kg (3mg/kg AZD4320), day 83): 919.497 | Tumour volume, Geo Mean (RS4;11 xenograft; RS4;11, AZD0466 34 mg/kg (10mg/kg AZD4320), day 41): 491.258 | Tumour volume, Geo Mean (RS4;11 xenograft; RS4;11, AZD0466 34 mg/kg (10mg/kg AZD4320), day 44): 242.554 | Tumour volume, Geo Mean (RS4;11 xenograft; RS4;11, AZD0466 34 mg/kg (10mg/kg AZD4320), day 48): 1.95 | Tumour volume, Geo Mean (RS4;11 xenograft; RS4;11, AZD0466 34 mg/kg (10mg/kg AZD4320), day 51): 1 | Tumour volume, Geo Mean (RS4;11 xenograft; RS4;11, AZD0466 34 mg/kg (10mg/kg AZD4320), day 55): 1 | Tumour volume, Geo Mean (RS4;11 xenograft; RS4;11, AZD0466 34 mg/kg (10mg/kg AZD4320), day 58): 1 | Tumour volume, Geo Mean (RS4;11 xenograft; RS4;11, AZD0466 34 mg/kg (10mg/kg AZD4320), day 63): 24.9155 | Tumour volume, Geo Mean (RS4;11 xenograft; RS4;11, AZD0466 34 mg/kg (10mg/kg AZD4320), day 66): 88.4785 | Tumour volume, Geo Mean (RS4;11 xenograft; RS4;11, AZD0466 34 mg/kg (10mg/kg AZD4320), day 70): 55.1235 | Tumour volume, Geo Mean (RS4;11 xenograft; RS4;11, AZD0466 34 mg/kg (10mg/kg AZD4320), day 73): 52.3606 | Tumour volume, Geo Mean (RS4;11 xenograft; RS4;11, AZD0466 34 mg/kg (10mg/kg AZD4320), day 77): 71.4432 | Tumour volume, Geo Mean (RS4;11 xenograft; RS4;11, AZD0466 34 mg/kg (10mg/kg AZD4320), day 80): 194.327 | Tumour volume, Geo Mean (RS4;11 xenograft; RS4;11, AZD0466 34 mg/kg (10mg/kg AZD4320), day 83): 206.49 | Tumour volume, Geo Mean (RS4;11 xenograft; RS4;11, AZD0466 103 mg/kg (30mg/kg AZD4320), day 41): 495.68 | Tumour volume, Geo Mean (RS4;11 xenograft; RS4;11, AZD0466 103 mg/kg (30mg/kg AZD4320), day 44): 271.066 | Tumour volume, Geo Mean (RS4;11 xenograft; RS4;11, AZD0466 103 mg/kg (30mg/kg AZD4320), day 48): 1.967 | Tumour volume, Geo Mean (RS4;11 xenograft; RS4;11, AZD0466 103 mg/kg (30mg/kg AZD4320), day 51): 1 | Tumour volume, Geo Mean (RS4;11 xenograft; RS4;11, AZD0466 103 mg/kg (30mg/kg AZD4320), day 55): 1 | Tumour volume, Geo Mean (RS4;11 xenograft; RS4;11, AZD0466 103 mg/kg (30mg/kg AZD4320), day 58): 1 | Tumour volume, Geo Mean (RS4;11 xenograft; RS4;11, AZD0466 103 mg/kg (30mg/kg AZD4320), day 63): 5.6048 | Tumour volume, Geo Mean (RS4;11 xenograft; RS4;11, AZD0466 103 mg/kg (30mg/kg AZD4320), day 66): 13.7221 | Tumour volume, Geo Mean (RS4;11 xenograft; RS4;11, AZD0466 103 mg/kg (30mg/kg AZD4320), day 70): 40.3244 | Tumour volume, Geo Mean (RS4;11 xenograft; RS4;11, AZD0466 103 mg/kg (30mg/kg AZD4320), day 73): 44.9682 | Tumour volume, Geo Mean (RS4;11 xenograft; RS4;11, AZD0466 103 mg/kg (30mg/kg AZD4320), day 77): 64.9706 | Tumour volume, Geo Mean (RS4;11 xenograft; RS4;11, AZD0466 103 mg/kg (30mg/kg AZD4320), day 80): 64.3873 | Tumour volume, Geo Mean (RS4;11 xenograft; RS4;11, AZD0466 103 mg/kg (30mg/kg AZD4320), day 83): 200.25 | animals remaining tumour free for up to 6 weeks (RS4;11 xenograft; RS4;11, highest dose (30 mg/kg AZD4320-equivalent)): 2/6 | regression during treatment period (RS4;11 xenograft; RS4;11, weekly IV, 10 mg/kg and 30 mg/kg AZD4320-equivalent): Complete tumour regression | tumour regression (RS4;11 xenograft; RS4;11, weekly IV, 3, 10 and 30 mg/kg AZD4320-equivalent dose, each dose group): tumour regression in all 6 mice | other cardiovascular effects (telemetered dogs; conscious telemetered dogs, 1-hour infusion): A small increase in diastolic BP, a transient and delayed-onset small increase in heart rate, a decrease in dP/dt+ (an index of cardiac contractility) and a decrease in PR interval | effect on QRS amplitude (telemetered dogs; conscious telemetered dogs, 1-hour infusion, 30 and 60 mg/kg): dose-dependent decrease in QRS amplitude that returned to baseline | NOEL (no observed effect level), cardiovascular system (telemetered dogs; dog): 10 mg/kg | improvement in cardiovascular tolerability based on dose vs AZD4320 (telemetered dogs; dog): 18 fold | effect on QRS amplitude (telemetered dogs; dog, 10 mg/kg AZD0466 (equivalent to 3 mg/kg AZD4320)): no effect on QRS amplitude | Effects (telemetered dogs; [1]): No effect level | Tolerated? (telemetered dogs; [1]): Yes | Tolerated? (telemetered dogs; [2]): Yes | ↓QRS amplitude (% decrease) (telemetered dogs; [2]): 30% | Effects other than QRS amplitude (telemetered dogs; [3]): ↑DBP, ↑HR, ↓dP/dt+, ↓PR interval, ↓LVEDP | Tolerated? (telemetered dogs; [3]): Yes | ↓QRS amplitude (% decrease) (telemetered dogs; [3]): 33%
